Patent publication US4124726A, “Anti-inflammatory agent of benzoyl derivative” (priority 1976, dated 1978)
Where two headings read alike, the source gives them in different places.

Columns and labels:
carragheenin edema = assay: acute carragheenin edema inhibition (anti-inflammatory effect); type: in vivo, male rats; conditions: for Anti-inf. (edema inhibition rate) / inhibition in vivo at 100 mg/kg: 100 mg/kg oral; for ED50 / inhibition in vivo at 100 mg/kg: Rattus norvegicus; for ED50: read-out: 50% inhibition rate ED50; for inhibition in vivo at 100 mg/kg: read-out: Anti-inf. (edema inhibition rate)
Method: The edema was induced by subcutaneous injection of 1% carraheenin suspension in saline to the hind paws of male rats weighing 150 to 180 g. Each sample was orally given at the dosage of 100 mg/kg just before the inoculation of carragheenin.

platelet aggregation = assay: blood platelet aggregation inhibition, collagen as inducer; type: cell-based; conditions: 10^-4 mole, rabbit PRP; for inhibition at 100 µM: Oryctolagus cuniculus, Platelet, read-out: Blood platelet agg. inh. (percentage inhibition of platelet aggregation)
From the text: Blood platelet aggregation inhibiting effect
Male rabbits (Japan original white strain 3.3 to 3.6 kg) were anesthetized with Thiopental sodium and blood was sampled from the carotid artery.

in vivo = conditions: mouse, po
Method: Each sample was dissolved in olive oil or dispersed in 1% Tween 20 aqueous solution.

thrombosis = assay: inhibiting effect on thrombosis (arterio-venous by-pass, silk thread); type: in vivo, SD type male rats; conditions: for inhibition in vivo at 100 mg/kg: Rattus norvegicus, read-out: Thrombosis inh.
Method: Inhibiting effect on thrombosis:
The inhibiting effects of the samples of the invention on thrombosis were tested by the following test method.
A 0.5 ml of 50 μ/ml of the heparin physiological saline was added through the polyethylene tube before the first blood circulation. After the blood circulation for 15 minutes, the circulation was stopped in the middle of the tubing at artery side with a pinch cock.
Then, 0.2 ml of the heparin physiological saline was added to remove the blood coagulates on the tubing wall and another new polyethylene tubing filled with the heparin solution and containing a piece of new silk thread was attached between the venous and artery tubing ends.
The blood circulation was reestablished by opening the pinch cock. After 15 minutes, the wet weight of thrombus on the silk thread was similarly measured. In the same manner, the third circulation was performed and wet weight of thrombus measured.
The amount of thrombus was given by the equation A. [formula] Each sample was suspended in an aqueous solution of sodium carboxymethyl cellulose and the oral dose of the suspension (100 mg/kg) was performed at 5 hours before the first blood circulation. The amount of thrombus after the oral dose of the sample was calculated in the same manner as that of control circulations.
The thrombosis inhibition rate was given by the equation B. [formula]

[1] = tested on: painful stretchings induced by acetic acid; assay: acetic acid induced stretching (analgesic effect); conditions: for Analgesic (percentage diminution of times of painful stretchings): 100 mg/kg oral, 0.7% acetic acid i.p., mice; for inhibition in vivo at 100 mg/kg: Mus musculus, po, read-out: Analgesic (percentage diminution of times of painful stretchings)
Method: Each sample was orally administrated in the dosage of 100 mg/kg before injection of acetic acid.

[2] = carragheenin edema, rats, Table 2
[3] = 100 mg/kg oral, 5 hours before first circulation, rats
[4] = oral, carragheenin edema, rats, Table 2

SMILES | Anti-inf. (edema inhibition rate) (carragheenin edema; [2]) [%] | ED50 (carragheenin edema; po) [mg/kg] | Blood platelet agg. inh. (percentage inhibition of platelet aggregation) (platelet aggregation) [%] | LD50 at 72 h (in vivo) [mg/kg] | Thrombosis inh. (thrombosis; [3]) [%] | Analgesic (percentage diminution of times of painful stretchings) [1] [%] | inhibition in vivo at 100 mg/kg (carragheenin edema; [2]) [%] | inhibition at 100 µM (platelet aggregation) [%] | inhibition in vivo at 100 mg/kg (thrombosis; [3]) [%] | inhibition in vivo at 100 mg/kg [1] [%] | ED50 (carragheenin edema; [4]) [mg/kg] | inhibition in vivo at 100 mg/kg (thrombosis; po) [%]
O=C(c1ccccc1)c1ccccc1 [compound 27] | 47.7 | 120 | 25.7 | 3700 | 25.9 | 13.2 | – | – | – | – | – | –
CCCCCCc1ccc(C(=O)c2ccc(C)cc2C)cc1 [Active ingredient No. 4] | – | – | – | 4000 | – | – | 44.2 | 20.5 | 15.9 | 16.3 | – | –
COc1ccc(C(=O)C(=O)c2ccccc2)cc1 | 43.9 | – | 20.1 | 10000 | 18.3 | 10.2 | – | – | – | – | – | –
Cc1cc(C)c(C(=O)c2ccccc2)c(C)c1 [compound 30] | – | – | – | 1500 | – | – | 64.7 | 8.7 | 44.8 | 13.4 | 45 | –
O=C(C(=O)c1ccccc1)c1ccccc1 [compound 53] | 20.3 | – | 10.1 | – | 19.2 | 14.2 | – | – | – | – | – | –
CCCCc1ccc(C(=O)c2ccccc2F)cc1 [compound 8] | – | – | 24.0 | – | – | 14.8 | – | – | 38 | – | 38 | –
Cc1ccc(C)c(C(=O)c2ccccc2)c1 [compound 38] | – | – | 20.9 | 1000 | – | 18.0 | – | – | 8.3 | – | 170 | –
Cc1ccc(C(=O)C(=O)c2ccccc2)cc1 [compound 54] | 25.5 | – | 15.4 | – | 20.3 | 11.3 | – | – | – | – | – | –
O=C(c1ccccc1)c1ccc(C2CCCCC2)cc1 [compound 73] | – | – | – | 6000 | – | – | 32.1 | 20.3 | 28.8 | 10 | – | –
COc1ccc(C(=O)c2ccccc2)cc1 [compound 28] | 44.1 | – | 20.4 | > 10000 | – | 4.2 | – | – | – | – | – | 7.3
CCCCc1ccc(C(=O)c2ccccc2)cc1 [compound 19] | – | – | 18.6 | 2400 | – | 30.1 | – | – | 7.9 | – | 25 | –
O=C(Cc1ccccc1)c1ccccc1 [compound 47] | 20.9 | – | 18.3 | – | 15.6 | 13.1 | – | – | – | – | – | –
